Laboratory results: ChEMBL document CHEMBL3885881, “DrugMatrix”

Species on record: Rattus norvegicus
Experiment: DrugMatrix - Regimen: Daily Repeat
Assay type: toxicity, organism-based, Sprague-Dawley
Design: regimen Daily Repeat, gender Male, age 6-8 weeks
Settings: in vivo, sc, route subcutaneous, […]; for ABSOLUTE BASOPHIL / ABSOLUTE EOSINOPHIL / ABSOLUTE LYMPHOCYTE / ABSOLUTE MONOCYTE / ABSOLUTE SEGMENTED NEUTROPHIL / BASOPHIL / EOSINOPHIL / ERYTHROCYTE COUNT / HEMATOCRIT / HEMOGLOBIN / LEUKOCYTE COUNT / LYMPHOCYTE / MEAN CORPUSCULAR HEMOGLOBIN / MEAN CORPUSCULAR HEMOGLOBIN CONCENTRATION / MEAN CORPUSCULAR VOLUME / MONOCYTE / NEUTROPHIL / NUCLEATED RED BLOOD CELLS / PLATELET COUNT: tissue Blood; for ALANINE AMINOTRANSFERASE / ALBUMIN / ALKALINE PHOSPHATASE / ASPARTATE AMINOTRANSFERASE / BLOOD UREA NITROGEN / CARBON DIOXIDE / CHLORIDE / CHOLESTEROL / CREATINE PHOSPHOKINASE / CREATININE / GLUCOSE / LACTATE DEHYDROGENASE / LIPASE / PHOSPHORUS / POTASSIUM / SODIUM / TOTAL BILIRUBIN / TOTAL PROTEIN / URIC ACID: tissue Plasma
[1] = 0 mg/kg, 72 h, dose level Control, time 3 day
[2] = 0 mg/kg, 120 h, dose level Control, time 5 day
[3] = 50 mg/kg, 72 h, dose level Low, time 3 day

CCCCOC(=O)c1ccc(N)cc1 [BUTAMBEN]
ABSOLUTE BASOPHIL [1]: 0 CELLS/uL | ABSOLUTE EOSINOPHIL [1]: 42.67 CELLS/uL | ABSOLUTE LYMPHOCYTE [1]: 10202 CELLS/uL | ABSOLUTE MONOCYTE [1]: 261.5 CELLS/uL | ABSOLUTE SEGMENTED NEUTROPHIL [1]: 2193.83 CELLS/uL | BASOPHIL [1]: 0% | EOSINOPHIL [1]: 0.33% | ERYTHROCYTE COUNT [1]: 5.63 x10E6/uL | HEMATOCRIT [1]: 35.35% | HEMOGLOBIN [1]: 13.07 G/DL | LEUKOCYTE COUNT [1]: 12.7 x10E3/uL | LYMPHOCYTE [1]: 81.17% | MEAN CORPUSCULAR HEMOGLOBIN [1]: 23.23 pg | MEAN CORPUSCULAR HEMOGLOBIN CONCENTRATION [1]: 36.97 G/DL | MEAN CORPUSCULAR VOLUME [1]: 62.82 fL | MONOCYTE [1]: 2% | NEUTROPHIL [1]: 16.5% | NUCLEATED RED BLOOD CELLS [1]: 0 /100WBC | PLATELET COUNT [1]: 1180.33 x10E3/uL | ALANINE AMINOTRANSFERASE [1]: 48.67 u/L | ALBUMIN [1]: 4.08 G/DL | ALKALINE PHOSPHATASE [1]: 360.67 u/L | ASPARTATE AMINOTRANSFERASE [1]: 85.5 u/L | BLOOD UREA NITROGEN [1]: 17.83 mg/dL | CARBON DIOXIDE [1]: 26.17 mmol/L | CHLORIDE [1]: 101.83 MEQ/L | CHOLESTEROL [1]: 71 mg/dL | CREATINE PHOSPHOKINASE [1]: 515.17 u/L | CREATININE [1]: 0.22 mg/dL | GLUCOSE [1]: 192.5 mg/dL | LACTATE DEHYDROGENASE [1]: 214.67 u/L | LIPASE [1]: 8.5 u/L | PHOSPHORUS [1]: 12.95 mg/dL | POTASSIUM [1]: 6.39 MEQ/L | SODIUM [1]: 142.38 MEQ/L | TOTAL BILIRUBIN [1]: 0.18 mg/dL | TOTAL PROTEIN [1]: 5.95 G/DL | URIC ACID [1]: 1.83 mg/dL | ABSOLUTE BASOPHIL [2]: 0 CELLS/uL | ABSOLUTE EOSINOPHIL [2]: 188.5 CELLS/uL | ABSOLUTE LYMPHOCYTE [2]: 12360.83 CELLS/uL | ABSOLUTE MONOCYTE [2]: 64.33 CELLS/uL | ABSOLUTE SEGMENTED NEUTROPHIL [2]: 1986.33 CELLS/uL | BASOPHIL [2]: 0% | EOSINOPHIL [2]: 1.33% | ERYTHROCYTE COUNT [2]: 5.52 x10E6/uL | HEMATOCRIT [2]: 35.82% | HEMOGLOBIN [2]: 13.25 G/DL | LEUKOCYTE COUNT [2]: 14.6 x10E3/uL | LYMPHOCYTE [2]: 84.5% | MEAN CORPUSCULAR HEMOGLOBIN [2]: 24.05 pg | MEAN CORPUSCULAR HEMOGLOBIN CONCENTRATION [2]: 36.98 G/DL | MEAN CORPUSCULAR VOLUME [2]: 64.97 fL | MONOCYTE [2]: 0.5% | NEUTROPHIL [2]: 13.67% | NUCLEATED RED BLOOD CELLS [2]: 0 /100WBC | PLATELET COUNT [2]: 1297.83 x10E3/uL | ALANINE AMINOTRANSFERASE [2]: 51.17 u/L | ALBUMIN [2]: 4.08 G/DL | ALKALINE PHOSPHATASE [2]: 393.17 u/L | ASPARTATE AMINOTRANSFERASE [2]: 111 u/L | BLOOD UREA NITROGEN [2]: 18.17 mg/dL | CARBON DIOXIDE [2]: 25 mmol/L | CHLORIDE [2]: 105.17 MEQ/L | CHOLESTEROL [2]: 65.5 mg/dL | CREATINE PHOSPHOKINASE [2]: 911.5 u/L | CREATININE [2]: 0.21 mg/dL | GLUCOSE [2]: 183 mg/dL | LACTATE DEHYDROGENASE [2]: 189 u/L | LIPASE [2]: 8.33 u/L | PHOSPHORUS [2]: 12.78 mg/dL | POTASSIUM [2]: 6.05 MEQ/L | SODIUM [2]: 144.57 MEQ/L | TOTAL BILIRUBIN [2]: 0.25 mg/dL | TOTAL PROTEIN [2]: 5.83 G/DL | URIC ACID [2]: 1.58 mg/dL | ABSOLUTE BASOPHIL [3]: 0 CELLS/uL | ABSOLUTE EOSINOPHIL [3]: 143.67 CELLS/uL | ABSOLUTE LYMPHOCYTE [3]: 12216.67 CELLS/uL | ABSOLUTE MONOCYTE [3]: 393.33 CELLS/uL | ABSOLUTE SEGMENTED NEUTROPHIL [3]: 2079.67 CELLS/uL | BASOPHIL [3]: 0% | EOSINOPHIL [3]: 1% | ERYTHROCYTE COUNT [3]: 5.53 x10E6/uL | HEMATOCRIT [3]: 33.47% | HEMOGLOBIN [3]: 12.13 G/DL | LEUKOCYTE COUNT [3]: 14.83 x10E3/uL | LYMPHOCYTE [3]: 82.33% | MEAN CORPUSCULAR HEMOGLOBIN [3]: 21.93 pg | MEAN CORPUSCULAR HEMOGLOBIN CONCENTRATION [3]: 36.23 G/DL | MEAN CORPUSCULAR VOLUME [3]: 60.5 fL | MONOCYTE [3]: 2.67% | NEUTROPHIL [3]: 14% | NUCLEATED RED BLOOD CELLS [3]: 0 /100WBC | PLATELET COUNT [3]: 1210 x10E3/uL | ALANINE AMINOTRANSFERASE [3]: 56.33 u/L | ALBUMIN [3]: 3.9 G/DL | ALKALINE PHOSPHATASE [3]: 352 u/L | ASPARTATE AMINOTRANSFERASE [3]: 93.33 u/L | BLOOD UREA NITROGEN [3]: 15.67 mg/dL | CARBON DIOXIDE [3]: 27 mmol/L | CHLORIDE [3]: 103.67 MEQ/L | CHOLESTEROL [3]: 75.33 mg/dL | CREATINE PHOSPHOKINASE [3]: 408 u/L | CREATININE [3]: 0.24 mg/dL | GLUCOSE [3]: 178.67 mg/dL | LACTATE DEHYDROGENASE [3]: 150.67 u/L | LIPASE [3]: 8.33 u/L | PHOSPHORUS [3]: 12.53 mg/dL | POTASSIUM [3]: 5.89 MEQ/L | SODIUM [3]: 144.57 MEQ/L | TOTAL BILIRUBIN [3]: 0.2 mg/dL | TOTAL PROTEIN [3]: 5.57 G/DL | URIC ACID [3]: 1.43 mg/dL
